# Earlier results, collected in patent US20240058414A1, “METHODS OF TREATING MELANOCORTIN-4 RECEPTOR PATHWAY-ASSOCIATED DISORDERS” (RHYTHM PHARMACEUTICALS, INC., priority 2020, published 2024).
# Assays:
# [1] = clinical trials; Chen et al. J. Clin. Endocrinol. Metab. 2015
# [2] = patients with POMC and LEPR deficiency obesity, earlier pivotal studies
smiles,measurement,setting,value
"CC(=O)N[C@@H](CCCNC(=N)N)C(=O)N[C@H]1CSSC[C@@H](C(N)=O)NC(=O)[C@H](Cc2c[nH]c3ccccc23)NC(=O)[C@H](CCCNC(=N)N)NC(=O)[C@@H](Cc2ccccc2)NC(=O)[C@H](Cc2cnc[nH]2)NC(=O)[C@@H](C)NC1=O [setmelanotide, Ac-Arg-c(Cys-D-Ala-His-D-Phe-Arg-Trp-Cys)-NH2]",adverse effect on blood pressure,[1],has not been shown to adversely affect blood pressure
same,reduction in hunger,[2],statistically significant and clinically meaningful reduction in hunger
same,weight loss,[2],rapid and sustained significant and clinically meaningful weight loss
